Here are results for 49 substances from patent US10517889B2, “Modulators of SMAD7 expression” (Ionis Pharmaceuticals, Inc., priority 2017, dated 2019).

Strand notation (5' to 3'): a small letter for the sugar, then the base; units joined by * are phosphorothioate-linked, units joined directly phosphodiester-linked; [ ] holds rarer units or linkages, { } end groups; capitals alone tell only the bases. k = constrained ethyl (cEt); [5mC] = 5-methylcytosine; d = 2'-deoxy (DNA)

One series deals with human SMAD7 mRNA. The series can be described thus: Antisense inhibition of human SMAD7 mRNA expression in Hep3B cells by 3-10-3 cEt gapmers, 10,000 nM, electroporation (Example 2). The note with it: Hep3B cells, 10,000 nM antisense oligonucleotide, electroporation, approximately 24 hours, RT-PCR primer probe set RTS5062, relative to untreated control cells. Format: cell-based. Summed up: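 SMAD7 mRNA was measured by real-time PCR (RTS5062) with RiboGreen total-RNA normalization, about 24 h after 10,000 nM gapmer was delivered by electroporation into Hep3B cells at 20,000 per well. Gapmers were 16-mer 3-10-3 cEt, fully phosphorothioate; values are % inhibition versus untreated controls.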
One may read the % Inhibition as the drop in the measured response relative to a control, in per cent. Take “798819 (kT*k[5mC]*k[5mC]*d[5mC]*dA*dG*dT*dA*dT*dG*d[5mC]*d[5mC]*dA*k[5mC]*k[5mC]*kA; antisense) [compound 798819]”: the “% Inhibition” value is 0%. In the case of “798820 (kT*k[5mC]*kT*d[5mC]*d[5mC]*dT*d[5mC]*d[5mC]*d[5mC]*dA*dG*dT*dA*kT*kG*k[5mC]; antisense) [compound 798820]”, the “% Inhibition” value worked out at 24%. With “798821 (kA*kG*k[5mC]*d[5mC]*dT*d[5mC]*d[5mC]*d[5mC]*d[5mC]*dA*d[5mC]*dT*d[5mC]*kT*k[5mC]*kG; antisense) [compound 798821]”, the “% Inhibition” value came out at 32%. As for “798822 (kG*kT*kA*dG*dA*dG*d[5mC]*d[5mC]*dT*d[5mC]*d[5mC]*d[5mC]*d[5mC]*kA*k[5mC]*kT; antisense) [compound 798822]”, the “% Inhibition” value was found to be 56%. With “798825 (k[5mC]*kT*kG*dG*dA*d[5mC]*dA*d[5mC]*dA*dG*dT*dA*dG*kA*kG*k[5mC]; antisense) [compound 798825]”, the “% Inhibition” value was found to be 24%. In the case of “798826 (k[5mC]*kT*k[5mC]*d[5mC]*dT*dG*dG*dA*d[5mC]*dA*d[5mC]*dA*dG*kT*kA*kG; antisense) [compound 798826]”, the “% Inhibition” value was found to be 14%.

For “798827 (kA*kG*kA*dG*dA*dG*dG*dG*d[5mC]*dT*d[5mC]*d[5mC]*dT*kG*kG*kA; antisense) [compound 798827]”, the “% Inhibition” value is 21%. As to “798835 (k[5mC]*kG*kA*dG*dG*d[5mC]*dA*dA*dA*dA*dG*d[5mC]*d[5mC]*kA*kT*kT; antisense) [compound 798835]”, the “% Inhibition” value is listed as 22%. As for “798836 (kG*kT*k[5mC]*d[5mC]*dG*dA*dG*dG*d[5mC]*dA*dA*dA*dA*kG*k[5mC]*k[5mC]; antisense) [compound 798836]”, the “% Inhibition” value was 56%. For the substance “798837 (kG*k[5mC]*kT*dG*dT*d[5mC]*d[5mC]*dG*dA*dG*dG*d[5mC]*dA*kA*kA*kA; antisense) [compound 798837]”, the “% Inhibition” value amounted to 33%. Turning to “798838 (k[5mC]*k[5mC]*kG*dA*dA*dT*dT*dG*dA*dG*d[5mC]*dT*dG*kT*k[5mC]*k[5mC]; antisense) [compound 798838]”, the “% Inhibition” value is recorded as 58%. As to “798839 (kG*kT*kT*dG*dT*d[5mC]*d[5mC]*dG*dA*dA*dT*dT*dG*kA*kG*k[5mC]; antisense) [compound 798839]”, the “% Inhibition” value was determined as 47%. On to “798840 (k[5mC]*kT*k[5mC]*dT*dT*dG*dT*dT*dG*dT*d[5mC]*d[5mC]*dG*kA*kA*kT; antisense) [compound 798840]”, for which the “% Inhibition” value worked out at 56%. “798841 (k[5mC]*kT*kG*dA*d[5mC]*dT*d[5mC]*dT*dT*dG*dT*dT*dG*kT*k[5mC]*k[5mC]; antisense) [compound 798841]”: the “% Inhibition” value amounted to 0%. Same read-out and setting: the result for “798842 (k[5mC]*kA*kG*d[5mC]*dT*dG*dA*d[5mC]*dT*d[5mC]*dT*dT*dG*kT*kT*kG; antisense) [compound 798842]” reads 0%; that for “798853 (k[5mC]*k[5mC]*kA*d[5mC]*dA*d[5mC]*dA*d[5mC]*d[5mC]*dA*dT*d[5mC]*d[5mC]*kA*k[5mC]*k[5mC]; antisense) [compound 798853]”, 7%. As to “798854 (kT*kA*k[5mC]*dA*d[5mC]*d[5mC]*d[5mC]*dA*d[5mC]*dA*d[5mC]*dA*d[5mC]*k[5mC]*kA*kT; antisense) [compound 798854]”, the “% Inhibition” value is 25%. Still for that read-out and setting: with “798855 (kT*kT*kG*dT*dA*d[5mC]*dA*d[5mC]*d[5mC]*d[5mC]*dA*d[5mC]*dA*k[5mC]*kA*k[5mC]; antisense) [compound 798855]” the figure was 11%.

As to “798856 (kT*kG*k[5mC]*dG*dG*dT*dT*dG*dT*dA*d[5mC]*dA*d[5mC]*k[5mC]*k[5mC]*kA; antisense) [compound 798856]”, the “% Inhibition” value came to 67%. Still for that read-out and setting: the result for “798857 (kT*kG*k[5mC]*dT*dG*d[5mC]*dG*dG*dT*dT*dG*dT*dA*k[5mC]*kA*k[5mC]; antisense) [compound 798857]” reads 11%; that for “798858 (kG*kG*kT*dA*dA*d[5mC]*dT*dG*d[5mC]*dT*dG*d[5mC]*dG*kG*kT*kT; antisense) [compound 798858]”, 46%; that for “798859 (k[5mC]*kG*kG*dA*d[5mC]*dT*dT*dG*dA*dT*dG*dA*dA*kG*kA*kT; antisense) [compound 798859]”, 14%. The same measure, in the same setting: with “798860 (kT*kG*kG*d[5mC]*dG*dG*dA*d[5mC]*dT*dT*dG*dA*dT*kG*kA*kA; antisense) [compound 798860]” the figure was 22%.

Still in this series, the particulars now being: Hep3B cells, electroporation with 10,000 nM antisense oligonucleotide, approximately 24 hours, SMAD7 mRNA by RT-PCR (RTS5062), relative to untreated control cells.
For the substance “798818 (kT*kA*kT*dG*d[5mC]*d[5mC]*dA*d[5mC]*d[5mC]*dA*d[5mC]*dG*d[5mC]*kA*k[5mC]*k[5mC]; antisense) [compound 798818]”, the “% Inhibition” value is on record as 63%.

Turning to “798828 (kA*kT*k[5mC]*d[5mC]*dA*dG*dA*dG*dA*dG*dG*dG*d[5mC]*kT*k[5mC]*k[5mC]; antisense) [compound 798828]”, the “% Inhibition” value is 18%. For “798829 (kG*kA*kT*dA*dT*d[5mC]*d[5mC]*dA*dG*dA*dG*dA*dG*kG*kG*k[5mC]; antisense) [compound 798829]”, the “% Inhibition” value is listed as 0%. With “798830 (kG*kA*kA*dG*dA*dT*dA*dT*d[5mC]*d[5mC]*dA*dG*dA*kG*kA*kG; antisense) [compound 798830]”, the “% Inhibition” value was found to be 17%. For “798831 (kA*kT*kA*dG*dA*dA*dG*dA*dT*dA*dT*d[5mC]*d[5mC]*kA*kG*kA; antisense) [compound 798831]”, the “% Inhibition” value is 0%. For the substance “798832 (kA*kT*k[5mC]*dA*dT*dA*dG*dA*dA*dG*dA*dT*dA*kT*k[5mC]*k[5mC]; antisense) [compound 798832]”, the “% Inhibition” value turned out to be 41%.

For the substance “798833 (kT*kA*kG*dA*dT*d[5mC]*dA*dT*dA*dG*dA*dA*dG*kA*kT*kA; antisense) [compound 798833]”, the “% Inhibition” value stood at 48%. Still for that read-out and setting: the result for “798834 (kA*kA*kA*dA*dG*d[5mC]*d[5mC]*dA*dT*dT*d[5mC]*d[5mC]*d[5mC]*k[5mC]*kT*kG; antisense) [compound 798834]” reads 55%; that for “798843 (k[5mC]*kT*kG*d[5mC]*dA*d[5mC]*d[5mC]*dA*dG*d[5mC]*dT*dG*dA*k[5mC]*kT*k[5mC]; antisense) [compound 798843]”, 37%; that for “798844 (kA*k[5mC]*k[5mC]*dT*dT*d[5mC]*dT*dG*d[5mC]*dA*d[5mC]*d[5mC]*dA*kG*k[5mC]*kT; antisense) [compound 798844]”, 30%. Consider “798845 (k[5mC]*kG*k[5mC]*dA*d[5mC]*d[5mC]*dT*dT*d[5mC]*dT*dG*d[5mC]*dA*k[5mC]*k[5mC]*kA; antisense) [compound 798845]”, for which the “% Inhibition” value is reported as 18%. For the substance “798846 (k[5mC]*kT*k[5mC]*d[5mC]*dG*d[5mC]*dA*d[5mC]*d[5mC]*dT*dT*d[5mC]*dT*kG*k[5mC]*kA; antisense) [compound 798846]”, the “% Inhibition” value is 40%. Same read-out and setting: with “798847 (kT*kT*kG*d[5mC]*dT*d[5mC]*d[5mC]*dG*d[5mC]*dA*d[5mC]*d[5mC]*dT*kT*k[5mC]*kT; antisense) [compound 798847]” the figure was 24%. In the case of “798848 (kG*kA*kT*dT*dT*dT*dG*d[5mC]*dT*d[5mC]*d[5mC]*dG*d[5mC]*kA*k[5mC]*k[5mC]; antisense) [compound 798848]”, the “% Inhibition” value is 40%. For “798849 (k[5mC]*kA*kG*d[5mC]*d[5mC]*dG*dA*dT*dT*dT*dT*dG*d[5mC]*kT*k[5mC]*k[5mC]; antisense) [compound 798849]”, the “% Inhibition” value is given as 21%. As to “798850 (k[5mC]*kA*kG*d[5mC]*dT*dG*dG*dA*dT*dG*d[5mC]*d[5mC]*dG*k[5mC]*kA*kG; antisense) [compound 798850]”, the “% Inhibition” value was 12%.

In the case of “798851 (kA*k[5mC]*k[5mC]*dA*dT*d[5mC]*d[5mC]*dA*d[5mC]*d[5mC]*dT*d[5mC]*d[5mC]*k[5mC]*kG*k[5mC]; antisense) [compound 798851]”, the “% Inhibition” value amounted to 21%. As for “798861 (kG*kT*kG*dT*dG*dG*d[5mC]*dG*dG*dA*d[5mC]*dT*dT*kG*kA*kT; antisense) [compound 798861]”, the “% Inhibition” value was 24%.

“798862 (kT*k[5mC]*k[5mC]*dA*dG*dT*dG*dT*dG*dG*d[5mC]*dG*dG*kA*k[5mC]*kT; antisense) [compound 798862]”: the “% Inhibition” value turned out to be 20%. Consider “798863 (kG*kG*kG*dT*dT*dG*dT*d[5mC]*d[5mC]*dA*dG*dT*dG*kT*kG*kG; antisense) [compound 798863]”, for which the “% Inhibition” value stood at 41%. In the case of “798864 (kG*kT*k[5mC]*d[5mC]*dG*dG*dG*dT*dT*dG*dT*d[5mC]*d[5mC]*kA*kG*kT; antisense) [compound 798864]”, the “% Inhibition” value is recorded as 33%.

Consider “798865 (kG*kG*kA*dG*dT*d[5mC]*d[5mC]*dG*dG*dG*dT*dT*dG*kT*k[5mC]*k[5mC]; antisense) [compound 798865]”, for which the “% Inhibition” value was determined as 8%. For “798866 (kG*kT*k[5mC]*d[5mC]*dT*dG*dG*dA*dG*dT*d[5mC]*d[5mC]*dG*kG*kG*kT; antisense) [compound 798866]”, the “% Inhibition” value is 20%. On to “798867 (kT*kT*kG*dT*dG*dT*dA*d[5mC]*d[5mC]*dA*dA*d[5mC]*dA*kG*k[5mC]*kG; antisense) [compound 798867]”, for which the “% Inhibition” value came out at 29%. Regarding “798868 (kA*k[5mC]*k[5mC]*dT*dT*dG*dT*dG*dT*dA*d[5mC]*d[5mC]*dA*kA*k[5mC]*kA; antisense) [compound 798868]”, the “% Inhibition” value was found to be 48%. As for “798869 (kA*kA*k[5mC]*dA*d[5mC]*d[5mC]*dT*dT*dG*dT*dG*dT*dA*k[5mC]*k[5mC]*kA; antisense) [compound 798869]”, the “% Inhibition” value amounted to 41%.
